As a reminder, the mortality is the share of the test organisms that died. A higher mortality goes with a strong lethal effect. As usually defined, the minimal effective concentration is the lowest level tested that produced the effect sought. A high value points to weaker potency.

Bounds are passed on as bounds.

Data set [1] deals with diamondback moth (Plutella xylostella). Description: Insecticidal test against diamondback moth (Test Example 2). The format is in vivo. Particulars: 168 h, second or third instar larvae, 7th day after release, 26° C. From the text: (§1) Each formulation containing an active ingredient was dispersed in water to obtain a dispersion of each active ingredient having a concentration of 10 ppm. Leaves of cabbage were dipped in the respective dispersions for about 10 seconds, and then dried in air. A sheet of moistened filter paper was placed in a Petri dish having a diameter of 9 cm, and the dried leaves of cabbage were put on the filter paper. Larvae of diamondback moth (Plutella xylostella) in second or third instar were released on the leaves, and the Petri dishes were covered and kept in a constant temperature chamber with lightening at a temperature of 26° C. On the 7th day after release, dead insects were counted, and the mortality was calculated by the following equation: […]

Data set [2] deals with common cutworm (Spodoptera litura). Description: Insecticidal test against common cutworm (Test Example 3). The format is in vivo. Particulars: 168 h, second or third instar larvae, 7th day after release.
Text: as §1
(§2) The tests were conducted in the same manner as in Test Example 2 except that larvae of common cutworm (Spodoptera litura) in second or third instar were used instead of larvae of the diamondback moth in second or third instar, and the concentration of the active ingredient was changed from 10 ppm to 800 ppm or 1 ppm.

The next data set deals with Common cutworm. The experiment in a line: Insecticidal test (C-value) against common cutworm (Test Example 7-I). The format is in vivo. As to conditions: Spodoptera litura, 168 h; minimum concentration at which no less than 90% of insects are killed.
Text: as §1, §2
(§3) In the same manner as in Test Examples 2 and 3, insecticidal tests against diamondback moth and common cutworm were conducted with respect to each compound, and the minimum concentrations at which no less than 90% of insects are killed (hereinafter referred to as C-value), were obtained.

In another data set the test system is Diamondback moth. Description: Insecticidal test (C-value) against diamondback moth (Test Example 7-I). Particulars: Plutella xylostella, 168 h; minimum concentration at which no less than 90% of insects are killed. The format is in vivo.
Text: as §1, §3

Another data set has as its system Daphnia magna Straus. The experiment in a line: Acute Immobilisation Test against Daphnia magna Straus (Test Example 7-II). Format: in vivo. Particulars: first instar larvae; up to 48 hours; 23±1° C.; OECD guideline; Probit method. The protocol: An acetone solution of each compound was dispersed in water to obtain test solutions having various concentrations of the active ingredient. 250 ml of each test solution was introduced into a 430 ml glass beaker. Into each beaker, 10 first instar larvae born within 24 hours were released and kept at the solution temperature of 23±1° C. The immobilisation up to 48 hours after the release of the larvae was investigated in accordance with the OECD test guideline. The test was repeated 2-3 times in two series for each concentration. The 50% immobilisation concentration (EC50, ppb) was obtained by Probit method.

Data set [3] can be described thus: Residual test in soil (Test Example 7-III). Particulars: upland volcanic ash soil, irrigated condition; 5 ppm; 20 days; 30° C. How it is done:
Upland soil (volcanic ash soil) was screened through a sieve with a mesh size of 5 mm, and 20 g by dry weight basis of the soil was put into a 100 ml Erlenmeyer flask. Then, distilled water was introduced to simulate an irrigated condition with a water depth of 1 cm. An aluminum foil was put on the top of the flask, and the flask was left to stand still for 1 week in an incubator (dark place) at 30° C.
0.5 ml of a 200 ppm dispersion in acetone of each compound (100 μg) was added to the flask by means of a pipet (to a concentration of 5 ppm). The flask was closed and thoroughly shaked, and the soil attached to the closure was washed into the flask with a small amount of water. Then, the top of the flask was covered with an aluminum foil, and the flask was subjected to incubation in a growth cabinet (30° C., humidity: 60%, continuously lighted with a fluorescent lamp with 9,000 lux). 20 Days later, the total 20 g of the soil was subjected to analysis, and the remaining amount of the compound was measured.

Data set [4] has as its system house fly (Musca domestica). The experiment in a line: Egg hatch inhibition test by the treatment of adults of house fly (Test Example 6). Format: in vivo. As to conditions: po, 100 μg/g in diet of adult females for 3 days, unhatched eggs assessed one day after collection, read-out: ratio of the egg hatch inhibition (REHI). The protocol:
Sugar and skim milk were mixed in a weight ratio of 1:1, and 2 g of the mixture was put into a Petri dish having a diameter of 5.5 cm. 0.5 ml of an acetone solution containing the active ingredient was added to the mixture in the Petri dish. After acetone evaporated, the treated mixture was thoroughly mixed, and the concentration of the active ingredient was adjusted to 100 μg/g. Twenty non-mating females of house fly (Musca domestica) were allowed to feed on the poisoned diet (the treated mixture) in a cage. After 3 days, the diet was changed to the untreated mixture, then 20 non-mating males were released into the cage for mating. On the 3rd day after release, a cup of the medium for rearing fly larvae was set in the cage for oviposition for 7 hours. The egg laid on the medium were collected and kept on the moistened filter paper in a Petri dish. One day later, unhatched eggs were assessed and the ratio of the egg hatch inhibition (REHI) was calculated by the following equation: [formula]

In turn, `COc1cc(N(C)C(=O)NC(=O)c2c(F)cccc2F)ccc1Oc1ncc(C(F)(F)F)cc1Cl` [compound 75] returned a mortality at 10 ppm in data set [1] of 90%. For the same molecule, the mortality at 1 ppm in data set [2] is 90%.

For `CN(C(=O)NC(=O)c1c(F)cccc1F)c1ccc(Oc2ccc(C(F)(F)F)cc2Cl)c(F)c1` [drawing 47 (R=CH3)], the results for the minimal effective concentration in the data set on Common cutworm and in the data set on Diamondback moth were 0.04 µg/mL and 0.08 µg/mL, respectively. Further, the “EC50 of Daphnia magna Straus (50% immobilisation concentration)” value (from here on “EC50 … (50% immobilisation concentration)”) in the data set on Daphnia magna Straus came out at 150 ppb. Further, the “Remaining rate in the soil” value in data set [3] is given as 76%. In data set [2], `Cc1ccccc1C(=O)NC(=O)N(C)c1cc(C)c(Oc2ccc(C(F)(F)F)cc2Cl)c(C)c1` [compound 66] had a mortality at 1 ppm of 100%. Take `O=C(NC(=O)c1c(F)cccc1F)Nc1ccc(Oc2ccc(C(F)(F)F)cc2Cl)cc1` [drawing 48 (R=H), reference compound]: the minimal effective concentration with Common cutworm and in the data set on Diamondback moth was 0.08 µg/mL throughout. Moreover, the “EC50 … (50% immobilisation concentration)” value with Daphnia magna Straus is listed as below 0.4 ppb. Further, the “Remaining rate in the soil” value in data set [3] was found to be 84%.

As to `CN(C(=O)NC(=O)c1c(F)cccc1F)c1ccc(-c2ccc(Cl)cc2)c(F)c1` [Compound No. 31, N-[4'-chloro-2-fluoro-4biphenylyl)-N'-(2,6-difluorobenzoyl)-N-methylurea], the inhibition at 100 µg/g in data set [4] turned out to be 100%. `Cc1cc(N(C)C(=O)NC(=O)c2ccccc2Cl)ccc1Oc1ncc(C(F)(F)F)cc1Cl` [compound 77, N-{4-[3-chloro-5-trifluoromethyl-2-pyridyloxy]-3-methylphenyl}-N'-(2-chlorobenzoyl)-N-methylurea]: the mortality at 10 ppm in data set [1] was found to be 100%.

`CN(C(=O)NC(=O)c1c(F)cccc1F)c1ccc(Oc2ncc(Cl)cc2C(F)(F)F)cc1` [compound 74] gave a mortality at 1 ppm in data set [2] of 100%. The same measure, in the same setting: the value for `Cc1cc(N(C)C(=O)NC(=O)c2c(F)cccc2F)cc(C)c1Oc1ccc(C(F)(F)F)cc1Cl` [compound 65] was 100%. Molecule `CN(C(=O)NC(=O)c1c(F)cccc1F)c1ccc(-c2ccc(C(F)(F)F)cc2)cc1` [compound 108] came in with a mortality at 10 ppm in data set [1] of 100%. In data set [2], this molecule came in with a mortality at 1 ppm of 100% and a mortality at 800 ppm of 100%. Take `Cc1cc(Oc2ncc(C(F)(F)F)cc2Cl)ccc1N(C)C(=O)NC(=O)c1c(F)cccc1F` [compound 20, N-[4-(3-chloro-5-trifluoromethyl-2-pyridyloxy)-2-methylphenyl]-N'-(2,6-difluorobenzoyl)-N-methylurea]: the inhibition at 100 µg/g in data set [4] was 100%. `CN(C(=O)NC(=O)c1c(F)cccc1F)c1ccc(N(C)c2ccc(C(F)(F)F)cc2Cl)cc1` [compound 126] yielded a mortality at 10 ppm in data set [1] of 100%. For the same molecule, in data set [2], the mortality at 1 ppm turned out to be 100% and the mortality at 800 ppm turned out to be 100%. Take `CN(C(=O)NC(=O)c1c(F)cccc1F)c1ccc(Oc2ccc(C(F)(F)F)cc2Cl)cc1` [drawing 48 (R=CH3)]: the minimal effective concentration with Common cutworm and with Diamondback moth was 0.02 µg/mL throughout. For the same molecule, in the data set with Daphnia magna Straus, the “EC50 … (50% immobilisation concentration)” value was 50 ppb. For the same molecule, the “Remaining rate in the soil” value in data set [3] was found to be 49%.

Turning to `Cc1ccccc1C(=O)NC(=O)N(C)c1ccc(Oc2ccc(C(F)(F)F)cc2Cl)c(F)c1` [compound 63], in data set [2], the mortality at 1 ppm was determined as 100%.

`Cc1cc(N(C)C(=O)NC(=O)c2c(F)cccc2F)ccc1Oc1ncc(C(F)(F)F)cc1Cl` [Compound No. 76] returned a mortality at 10 ppm in data set [1] of 100%.

As for `Cc1ccc(N(C)C(=O)NC(=O)c2c(F)cccc2F)cc1Oc1ccc(C(F)(F)F)cc1Cl` [compound 115], the mortality at 1 ppm in data set [2] is 100%. On to `Cc1cc(-c2ccc(Br)cc2)ccc1N(C)C(=O)NC(=O)c1c(F)cccc1F` [compound 109], for which the mortality at 10 ppm in data set [1] turned out to be 100%. Further, in data set [2], the mortality at 1 ppm was 100% and the mortality at 800 ppm is 100%.

Molecule `CN(C(=O)NC(=O)c1c(F)cccc1F)c1ccc(N(C)c2ncc(C(F)(F)F)cc2Cl)cc1` [compound 125] came in with a mortality at 10 ppm in data set [1] of 100%. In data set [2], this molecule registered a mortality at 1 ppm of 100% and a mortality at 800 ppm of 100%. As to `O=C(NC(=O)c1c(F)cccc1F)Nc1ccc(Oc2ccc(C(F)(F)F)cc2Cl)c(F)c1` [drawing 47 (R=H), reference compound], the minimal effective concentration in the data set with Common cutworm turned out to be 0.04 µg/mL; in the data set on Diamondback moth, 0.08 µg/mL. Moreover, the “EC50 … (50% immobilisation concentration)” value in the data set on Daphnia magna Straus is below 0.4 ppb. In data set [3], the “Remaining rate in the soil” value came to 91%.

In data set [2], `CN(C(=O)NC(=O)c1ccccc1Br)c1ccc(Oc2ncc(C(F)(F)F)cc2Cl)cc1` [Compound No. 80] returned a mortality at 1 ppm of 100%. In data set [1], `CN(C(=O)NC(=O)c1c(F)cccc1F)c1ccc(Oc2ccc(S(=O)(=O)C(F)(F)F)cc2)cc1` [compound 41] showed a mortality at 10 ppm of 100%.

Molecule `CN(C(=O)NC(=O)c1c(F)cccc1F)c1ccc(Oc2ccc([N+](=O)[O-])cc2Cl)cc1` [compound 62] displayed a mortality at 1 ppm in data set [2] of 100%.

On to `Cc1cc(N(C)C(=O)NC(=O)c2ccccc2C)ccc1Oc1ccc(C(F)(F)F)cc1Cl` [compound 64], for which the mortality at 1 ppm in data set [2] is 90%. For `CN(C(=O)NC(=O)c1c(F)cccc1F)c1ccc(-c2ccc(Br)cc2)cc1` [drawing 49 (R=CH3)], the minimal effective concentration in the data set with Common cutworm is 0.04 µg/mL; in the data set with Diamondback moth it was 0.02 µg/mL. Also, the “EC50 … (50% immobilisation concentration)” value with Daphnia magna Straus is given as 150 ppb. Further, the “Remaining rate in the soil” value in data set [3] is 45%. With `CN(C(=O)NC(=O)c1c(F)cccc1F)c1ccc(-c2ccc(Br)cc2)cc1` [Compound No. 29, N-(4'-bromo-4-biphenylyl)-N'-(2,6difluorobenzoyl)-N-methylurea], in data set [2], the mortality at 1 ppm turned out to be 100%. Also, the inhibition at 100 µg/g in data set [4] is 100%. In data set [1], `CN(C(=O)NC(=O)c1c(F)cccc1F)c1ccc(Oc2ccc(SC(F)(F)F)cc2)cc1` [compound 39] showed a mortality at 10 ppm of 100%.

For the molecule `CN(C(=O)NC(=O)c1c(F)cccc1F)c1ccc(Oc2ccc(C(F)(F)F)cc2Cl)c(F)c1F` [Compound No. 5, N-[4-(2-chloro-4-trifluoromethylphenoxy)-2,3-difluorophenyl]-N'-(2,6-difluorobenzoyl)-N-methylurea], in data set [4], the inhibition at 100 µg/g was determined as 100%. The same measure, in the same setting: the value for `CN(C(=O)NC(=O)c1c(F)cccc1F)c1ccc(Oc2ncc(C(F)(F)F)cc2Cl)c(Cl)c1` [compound 15, N-[3-chloro-4-(3-chloro-5-trifluoromethyl-2-pyridyloxy)-phenyl]-N'-(2,6-difluorobenzoyl)-N-methylurea] was 100%. With `O=C(NC(=O)c1c(F)cccc1F)Nc1ccc(-c2ccc(Br)cc2)cc1` [drawing 49 (R=H), reference compound], the figures for the minimal effective concentration in the data set with Common cutworm and with Diamondback moth were 0.6 µg/mL and 0.3 µg/mL, respectively. Also, in the data set on Daphnia magna Straus, the “EC50 … (50% immobilisation concentration)” value is below 0.8 ppb. The “Remaining rate in the soil” value in data set [3] amounted to 77%. In data set [1], `CN(C(=O)NC(=O)c1c(F)cccc1F)c1ccc(Oc2ccc(C(F)(F)F)cc2)cc1` [compound 40] gave a mortality at 10 ppm of 90%.

(Values after patent US4985449A, “N-benzoyl-N-pyridyloxy phenyl urea compounds and pesticide compositions containing them” (Ishihara Sangyo Kaisha Ltd., priority 1986, dated 1991).)
